Results reported in PubChem BioAssay AID206 (DTP/NCI, 2004).
“And” between values parts separate entries of the source, which are not always exact repeats. Equal values may be shown once. Results filed as inconclusive are left out.

System: nude mice, HT29 intrarenal xenograft, tumor weight T/C
Assay: NCI In Vivo Anticancer Drug Screen. Data for tumor model HT29;CX-1 Human Adenocarcinoma (MER+) (intrarenal inoculation) in NU/NU Swiss (nude) mice
Settings: endpoint: mean tumor weight change, higher = larger tumour
Procedure, shortened: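 Endpoint measured as tumor size or survival; ratio reported is treated group over vehicle controls.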

[1] = dose: 150.0 mg/kg/injection, schedule: Q04DX004 (sc), vehicle: Klucel (hydroxypropylcellulose) (HPC)
[2] = dose: 300.0 mg/kg/injection, schedule: Q04DX004 (sc), vehicle: Klucel (hydroxypropylcellulose) (HPC)
[3] = dose: 600.0 mg/kg/injection, schedule: Q04DX004 (sc), vehicle: Klucel (hydroxypropylcellulose) (HPC)
[4] = dose: 150.0 mg/kg/injection, schedule: Q04DX004 (sc), vehicle: saline
[5] = dose: 300.0 mg/kg/injection, schedule: Q04DX004 (sc), vehicle: saline
[6] = dose: 600.0 mg/kg/injection, schedule: Q04DX004 (sc), vehicle: saline
[7] = dose: 1200.0 mg/kg/injection, schedule: Q04DX004 (sc), vehicle: saline
[8] = dose: 1200.0 mg/kg/injection, schedule: Q04DX004 (sc), vehicle: Klucel (hydroxypropylcellulose) (HPC)
[9] = dose: 2400.0 mg/kg/injection, schedule: Q04DX004 (sc), vehicle: Klucel (hydroxypropylcellulose) (HPC)
[10] = dose: 300.0 mg/kg/injection, schedule: Q04DX004 (sc), vehicle: saline with Tween-80
[11] = dose: 600.0 mg/kg/injection, schedule: Q04DX004 (sc), vehicle: saline with Tween-80
[12] = dose: 150.0 mg/kg/injection, schedule: Q04DX004 (sc), vehicle: saline with Tween-80
[13] = dose: 50.0 mg/kg/injection, schedule: Q04DX004 (sc), vehicle: saline with Tween-80
[14] = dose: 75.0 mg/kg/injection, schedule: Q04DX004 (sc), vehicle: saline with Tween-80

In the case of `CC1=C(C)C(=O)O[C@@H]([C@](C)(O)[C@]2(O)CC[C@@]3(O)[C@@H]4C[C@H]5O[C@]56CC=CC(=O)[C@]6(C)[C@H]4CC[C@]23C)C1`, the T/C (dose: 450.0 mg/kg/injection, schedule: Q04DX004 (sc), vehicle: suspension in saline) is reported as 86 % of control, the T/C (dose: 900.0 mg/kg/injection, schedule: Q04DX004 (sc), vehicle: suspension in saline) is reported as 76 % of control and the T/C (dose: 1800.0 mg/kg/injection, schedule: Q04DX004 (sc), vehicle: suspension in saline) is reported as 102 % of control.

For `O=NN(CCCl)C(=O)Oc1cc(Cl)c(Cl)cc1Cl`, the T/C [1] was 94 % of control, the T/C [2] was 83 % of control and the T/C [3] was 92 % of control.

In the case of `OCC12COCN1COC2`, the T/C [4] is reported as 88 % of control, the T/C [5] is reported as 76 % of control and the T/C [6] is reported as 94 % of control. The T/C [7] was 90 % of control.

In the case of `O=C(CO)c1ccc([N+](=O)[O-])cc1`, the T/C (dose: 100.0 mg/kg/injection, schedule: Q01DX010 (sc), vehicle: saline with Tween-80) is reported as 63 % of control, the T/C (dose: 200.0 mg/kg/injection, schedule: Q01DX010 (sc), vehicle: saline with Tween-80) is reported as 70 % of control and the T/C (dose: 400.0 mg/kg/injection, schedule: Q01DX010 (sc), vehicle: saline with Tween-80) is reported as 122 % of control. For the same molecule, the T/C (dose: 800.0 mg/kg/injection, schedule: Q01DX010 (sc), vehicle: saline with Tween-80) was 75 % of control.

With `Cn1cc(C2NC(=O)c3ccccc3N2)c2ccccc21` (stereo not given) the T/C [2] was 97 % of control, the T/C [3] was 116 % of control and the T/C [8] was 60 % of control. For the same molecule, the T/C [9] was 94 % of control.

With `Cc1c(N)nc([C@H](CC(N)=O)NC[C@H](N)C(N)=O)nc1C(=O)N[C@H](C(=O)N[C@H](C)[C@@H](O)[C@H](C)C(=O)N[C@H](C(=O)NCCc1nc(-c2nc(C(=O)NCCC[S+](C)C)cs2)cs1)[C@@H](C)O)C(OC1OC(CO)C(O)C(O)C1OC1OC(CO)C(O)C(OC(N)=O)C1O)c1cnc[nH]1` (stereo not given in full) the T/C (dose: 4.0 mg/kg/injection, schedule: Q01DX010 (sc), vehicle: saline) was 59 % of control, the T/C (dose: 6.25 mg/kg/injection, schedule: Q04DX004 (sc), vehicle: saline) was 116 % of control and the T/C (dose: 8.0 mg/kg/injection, schedule: Q01DX010 (sc), vehicle: saline) was 59 % of control. For the same molecule, the T/C (dose: 8.0 mg/kg/injection, schedule: Q04DX004 (sc), vehicle: saline) was 111 % of control, the T/C (dose: 16.0 mg/kg/injection, schedule: Q04DX004 (sc), vehicle: saline) was 114 % of control and the T/C (dose: 25.0 mg/kg/injection, schedule: Q04DX004 (sc), vehicle: saline) was 160 % of control. The T/C (dose: 32.0 mg/kg/injection, schedule: Q04DX004 (sc), vehicle: saline) was 43 % of control, the T/C (dose: 50.0 mg/kg/injection, schedule: Q04DX004 (sc), vehicle: saline) was 113 % of control and the T/C (dose: 64.0 mg/kg/injection, schedule: Q01DX010 (sc), vehicle: saline) was 42 % of control.

With `CN1CCN(c2ccc3nc(-c4ccc5nc(-c6ccc(O)cc6)[nH]c5c4)[nH]c3c2)CC1` the T/C (dose: 100.0 mg/kg/injection, schedule: Q04DX004 (sc), vehicle: saline) was 35 % of control, the T/C (dose: 200.0 mg/kg/injection, schedule: Q04DX004 (sc), vehicle: saline) was 61 % of control and the T/C (dose: 800.0 mg/kg/injection, schedule: Q04DX004 (sc), vehicle: saline) was 56 % of control.

`Cc1c2cc(Cl)c3ccccc3c2c[n+]2ccccc12` was tested, and the T/C [10] was 101 % of control, the T/C [11] was 82 % of control and the T/C (dose: 1200.0 mg/kg/injection, schedule: Q04DX004 (sc), vehicle: saline with Tween-80) was 103 % of control.

For `CC1CC(C)CC(C)C(O)/C(C#N)=C/C=C/CC(C2CCCC2C(=O)O)OC(=O)CC(O)C(C)C1` (stereo not given), the T/C (dose: 1.5 mg/kg/injection, schedule: Q04DX004 (sc), vehicle: Klucel (hydroxypropylcellulose) (HPC)) was 87 % of control, the T/C (dose: 3.0 mg/kg/injection, schedule: Q04DX004 (sc), vehicle: Klucel (hydroxypropylcellulose) (HPC)) was 76 % of control and the T/C (dose: 6.0 mg/kg/injection, schedule: Q04DX004 (sc), vehicle: Klucel (hydroxypropylcellulose) (HPC)) was 40 % of control. The T/C (dose: 12.0 mg/kg/injection, schedule: Q04DX004 (sc), vehicle: Klucel (hydroxypropylcellulose) (HPC)) was 69 % of control.

In the case of `C[CH2][Ge]([CH2]C)[CH2]C.C[CH2][Ge]([CH2]C)[CH2]C.C[CH2][Ge]([CH2]C)[O][Ge]([CH2]C)[CH2]C`, the T/C [12] is reported as 112 % of control.

In the case of `Cc1ccc(C2NC(=S)N3C(c4ccc(C)cc4)NC(=S)N23)cc1` (stereo not given), the T/C [2] is reported as 75 % of control, the T/C [3] is reported as 80 % of control and the T/C [8] is reported as 69 % of control. The T/C [9] was 75 % of control.

For `CN=C(N)N/N=C(\c1ccccc1)c1ccc(Br)cc1`, the T/C [13] was 90 % of control and 92 % of control and 104 % of control.

For `CN1CCc2c(c3ccccc3c3ccccc23)C1`, the T/C [1] was 105 % of control, the T/C [2] was 80 % of control and the T/C [3] was 111 % of control.

In the case of `N#CC(C#N)=C/C=C/c1cccc([N+](=O)[O-])c1`, the T/C (dose: 100.0 mg/kg/injection, schedule: Q01DX010 (sc), vehicle: Klucel (hydroxypropylcellulose) (HPC)) is reported as 40 % of control, the T/C (dose: 200.0 mg/kg/injection, schedule: Q01DX010 (sc), vehicle: Klucel (hydroxypropylcellulose) (HPC)) is reported as 38 % of control and the T/C (dose: 400.0 mg/kg/injection, schedule: Q01DX010 (sc), vehicle: Klucel (hydroxypropylcellulose) (HPC)) is reported as 74 % of control. For the same molecule, the T/C (dose: 800.0 mg/kg/injection, schedule: Q01DX010 (sc), vehicle: Klucel (hydroxypropylcellulose) (HPC)) was 61 % of control.

In the case of `Nc1nc(N)c2c(ccc3c2ccn3Cc2cccc([N+](=O)[O-])c2)n1`, the T/C (dose: 6.25 mg/kg/injection, schedule: Q04DX004 (sc), vehicle: saline with Tween-80) is reported as 97 % of control, the T/C (dose: 12.5 mg/kg/injection, schedule: Q04DX004 (sc), vehicle: saline with Tween-80) is reported as 78 % of control and the T/C (dose: 25.0 mg/kg/injection, schedule: Q04DX004 (sc), vehicle: saline with Tween-80) is reported as 57 % of control. For the same molecule, the T/C [13] was 77 % of control, the T/C [14] was 157 % of control and the T/C [12] was 54 % of control.

In the case of `CCCCCCCCCCCCCCCC(=O)OCC1OC(n2ccc(N)nc2=O)C(O)C1O` (stereo not given), the T/C (dose: 18.75 mg/kg/injection, schedule: Q04DX004 (sc), vehicle: saline with Tween-80) is reported as 41 % of control.

`CC(C)CCCCCCCCCCCCC(=O)NCC(=O)NC1C(O)C(O)C(Nc2ncnc3nc[nH]c23)OC1C(O)CO` (stereo not given) was tested, and the T/C (dose: 0.75 mg/kg/injection, schedule: Q04DX004 (sc), vehicle: suspension in saline) was 85 % of control, the T/C (dose: 0.8 mg/kg/injection, schedule: Q01DX010 (sc), vehicle: saline) was 21 % of control and 24 % of control and the T/C (dose: 1.5 mg/kg/injection, schedule: Q04DX004 (sc), vehicle: suspension in saline) was 47 % of control. The T/C (dose: 3.0 mg/kg/injection, schedule: Q04DX004 (sc), vehicle: suspension in saline) was 10 % of control and 23 % of control and the T/C (dose: 6.0 mg/kg/injection, schedule: Q04DX004 (sc), vehicle: suspension in saline) was 15 % of control.

For `CC(=Nc1ccccc1)C1=C(O)C(Cc2ccccc2)NC1=O` (stereo not given), the T/C [14] was 66 % of control, the T/C [12] was 105 % of control and the T/C [10] was 43 % of control. For the same molecule, the T/C [11] was 80 % of control.

In the case of `CO[C@H]1C[C@](C)(O)Cc2cc3c(c(O)c21)C(=O)c1c(O)cc2c(c1C3=O)O[C@@H]1O[C@@]2(C)[C@H](O)[C@@H](N(C)C)[C@@H]1O`, the T/C (dose: 50.0 mg/kg/injection, schedule: Q04DX004 (sc), vehicle: other) is reported as 99 % of control.

With `CC[N+](CC)(CC)CC` the T/C (dose: 3.0 mg/kg/injection, schedule: Q01DX010 (sc), vehicle: saline with Tween-80) was 68 % of control and the T/C (dose: 6.0 mg/kg/injection, schedule: Q01DX010 (sc), vehicle: saline with Tween-80) was 104 % of control.

In the case of `O=C(Nc1ccc(N=C=S)cc1Cl)c1cc(Cl)cc(Cl)c1O`, the T/C (dose: 25.0 mg/kg/injection, schedule: Q04DX004 (sc), vehicle: Klucel (hydroxypropylcellulose) (HPC)) is reported as 123 % of control, the T/C (dose: 50.0 mg/kg/injection, schedule: Q04DX004 (sc), vehicle: Klucel (hydroxypropylcellulose) (HPC)) is reported as 102 % of control and the T/C (dose: 200.0 mg/kg/injection, schedule: Q04DX004 (sc), vehicle: Klucel (hydroxypropylcellulose) (HPC)) is reported as 56 % of control.

In the case of `Cc1ccccc1CN1C2=NCCN2C(=O)C2=C1CCN(S(=O)(=O)c1ccc(Cl)c(S(N)(=O)=O)c1)C2`, the T/C [4] is reported as 86 % of control, the T/C [5] is reported as 168 % of control and the T/C [6] is reported as 115 % of control. For the same molecule, the T/C [7] was 75 % of control.

For `NC(=S)N/N=C/c1ccc(OC(=O)COc2ccc(Cl)cc2)cn1`, the T/C [10] was 103 % of control and the T/C [11] was 150 % of control.

For `O=C(CCBr)N1CCN(C(=O)CCBr)CC1`, the T/C (dose: 12.5 mg/kg/injection, schedule: Q01DX010 (sc), vehicle: Klucel (hydroxypropylcellulose) (HPC)) was 71 % of control and the T/C (dose: 25.0 mg/kg/injection, schedule: Q01DX010 (sc), vehicle: Klucel (hydroxypropylcellulose) (HPC)) was 64 % of control.
